From patent publication US20090312437A1, “Anthraquinones and Analogs from Rhuem palmatum for Treatment of Estrogen Receptor Beta-Mediated Conditions” (Bionovo, Inc., A Delaware Corporation, priority 2008, published 2009)
Blank lines part the entries; values can stand above or below the compound they belong to.

Tests used:
ERα = molecular target: T1, ERα (Homo sapiens, UniProt P03372); assay: ERE-tk-Luc luciferase transient transfection assay in U2OS cells with ERα; type: cell-based; details: ERα expression vector
T1 construct: expressed in transfected cells; host or cells: U2OS (human osteosarcoma)
T1 sequence (P03372 1-595): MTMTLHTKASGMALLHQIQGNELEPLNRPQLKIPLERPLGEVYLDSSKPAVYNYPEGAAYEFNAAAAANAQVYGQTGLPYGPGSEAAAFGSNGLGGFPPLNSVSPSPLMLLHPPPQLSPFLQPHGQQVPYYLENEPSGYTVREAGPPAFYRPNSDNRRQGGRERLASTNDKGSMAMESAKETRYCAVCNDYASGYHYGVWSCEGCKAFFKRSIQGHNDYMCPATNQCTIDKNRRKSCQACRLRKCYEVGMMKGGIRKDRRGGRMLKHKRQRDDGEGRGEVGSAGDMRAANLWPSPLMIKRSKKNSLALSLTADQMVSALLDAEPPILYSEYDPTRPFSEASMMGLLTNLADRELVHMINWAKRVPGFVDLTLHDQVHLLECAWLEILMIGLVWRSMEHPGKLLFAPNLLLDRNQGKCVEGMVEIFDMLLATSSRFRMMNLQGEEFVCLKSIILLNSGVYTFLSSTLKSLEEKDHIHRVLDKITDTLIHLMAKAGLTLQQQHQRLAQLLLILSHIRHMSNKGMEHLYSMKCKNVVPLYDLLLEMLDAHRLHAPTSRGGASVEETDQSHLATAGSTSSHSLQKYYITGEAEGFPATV

[1] = test system: MCF-7 breast cancer cells; assay: MCF-7 kidney capsule graft tumor formation in nude mice; type: in vivo, CD-1/Nude female mice; details: MCF-7 grafts, 28 days, subcutaneous Alzet pump, 2 mg/200 μL for 6, 360 μg/200 μL for estradiol
Description: (§1) The effects of 6 were tested in vivo on breast cancer tumor formation and uterine proliferation. CD-1/Nude female mice, 40-50 days old at time of grafting were selected. Each mouse received 2 grafts per kidney, 4 grafts total with MCF-7 breast cancer cells in 25 μL collagen per graft. Compound 6 was delivered subcutaneously with a Alzet Osmotic pump filled with 200 μL of 6 for 28 days. […] At the end of 28 days of treatment, all grafts and uteri were isolated, pictures taken, weighed, and fixed in formalin.

uterine proliferation = assay: Uterine proliferation in nude mice, 28 days subcutaneous osmotic pump; type: in vivo, CD-1/Nude female mice; details: subcutaneous Alzet pump, 2 mg/200 μL for 6, 360 μg/200 μL for estradiol
Description: as §1

ERβ [2] = molecular target: T2, ERβ (Homo sapiens, UniProt Q92731); assay: Repression of TNF-α activation of TNF-RE tkLuc in U2OS cells with ERβ; type: cell-based; parameters: expressed in transfected cells; host or cells: U2OS (human osteosarcoma)
T2 sequence (Q92731 whole entry): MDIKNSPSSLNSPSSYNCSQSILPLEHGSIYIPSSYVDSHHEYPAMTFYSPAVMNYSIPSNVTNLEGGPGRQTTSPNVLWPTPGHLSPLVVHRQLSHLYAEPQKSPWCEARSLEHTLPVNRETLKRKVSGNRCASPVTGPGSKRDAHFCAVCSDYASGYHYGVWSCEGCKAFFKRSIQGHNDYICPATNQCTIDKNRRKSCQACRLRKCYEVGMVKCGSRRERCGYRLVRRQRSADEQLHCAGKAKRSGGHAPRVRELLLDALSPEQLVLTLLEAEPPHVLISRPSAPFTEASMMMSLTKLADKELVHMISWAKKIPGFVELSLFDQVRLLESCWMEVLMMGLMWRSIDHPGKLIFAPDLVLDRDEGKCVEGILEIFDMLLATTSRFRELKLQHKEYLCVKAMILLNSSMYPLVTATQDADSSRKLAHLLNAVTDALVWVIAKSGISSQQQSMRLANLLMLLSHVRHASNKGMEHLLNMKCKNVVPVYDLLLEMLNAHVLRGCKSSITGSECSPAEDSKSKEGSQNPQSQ

[3] = women at high risk for breast cancer; cited from earlier work
[4] = five years of therapy; cited from earlier work
ERβ [5] = molecular target: T2, ERβ; assay: ERE-tk-Luc luciferase transient transfection assay in U2OS cells with ERβ
ERβ [6] = molecular target: T2, ERβ; assay: ER binding curves (ERβ compared with ERα)

activation of ERE-tk-Luc in the presence of ERα (ERα): no effect on ERα
Compound: O=C1c2c(O)c(O)c(O)c(O)c2C(=O)c2c(O)c(O)c(O)c(O)c21 [compound 6, octahydroxyanthraquinone]
tumor formation / proliferation in kidney capsule grafts as compared to control [1]: does not increase breast cancer tumor formation
tumor formation / proliferation in kidney capsule grafts as compared to control ([1]; listed as octahydroxyanthraquinone): suppresses tumor proliferation

repression of TNF-α activity on ERβ (ERβ [2]; data not shown): 100%
Compound: C[C@]12CC[C@@H]3c4ccc(O)cc4CC[C@H]3[C@@H]1CC[C@@H]2O [estradiol, reference compound]
uterine proliferation as compared to control (uterine proliferation): stimulates uterine proliferation

Compound: CC/C(=C(\c1ccccc1)c1ccc(OCCN(C)C)cc1)c1ccccc1 [tamoxifen]
reduction of the risk of primary invasive breast cancer [3]: 49%
reduction of mortality from breast cancer [4]: 22%
reduction of the risk of recurrences [4]: 42%

ERβ-activation of ERE-tk-luc in the presence of compound and raloxifene (ERβ [5]): attenuated
ERβ-activation of ERE-tk-luc in the presence of compound and tamoxifen (ERβ [5]): attenuated
repression of TNF-α activation of TNF-RE in the presence of ERβ (ERβ [2]): produced repression
Compound: aloe-emodin [compound 2]

ERβ-activation of ERE-tk-luc in the presence of compound and raloxifene (ERβ [5]; listed as Emodin): attenuated
ERβ-activation of ERE-tk-luc in the presence of compound and raloxifene (ERβ [5]; listed as emodin): repressed
ERβ-activation of ERE-tk-luc in the presence of compound and tamoxifen (ERβ [5]; listed as Emodin): attenuated
ERβ-activation of ERE-tk-luc in the presence of compound and tamoxifen (ERβ [5]; listed as emodin): repressed
ERβ-binding curve as compared to the ERα-binding curve (ERβ [6]): very similar
repression of TNF-α activation of TNF-RE in the presence of ERβ (ERβ [2]): produced repression
Compound: emodin [compound 1]
